Results on six compounds are retold here after patent US20190284192A1, “NITROGENOUS MACROCYCLIC COMPOUND, PREPARATION METHOD THEREFOR, PHARMACEUTICAL COMPOSITION AND APPLICATION THEREOF” (LUOXIN PHARMACEUTICAL (SHANGHAI) CO., LTD., priority 2016, published 2019).

One series has as its target T1, BRD4 (BD1) (Homo sapiens, UniProt O60885).
T1 construct: Each member comprises two tandem bromodomains (BD1 and BD2) for recognizing the acetylated lysine residues
Nature of the series: BRD4 (BD1) bromodomain binding, HTRF. As to conditions: 2 h incubation at r.t. For orientation: In TR-FRET formats the signal depends on donor and acceptor labels being close together.

For the next series, the target named is T2, BRD4 (BD2) (Homo sapiens, UniProt O60885).
T2 construct: Each member comprises two tandem bromodomains (BD1 and BD2) for recognizing the acetylated lysine residues
Nature of the series: BRD4 (BD2) bromodomain binding, HTRF. As to conditions: 2 h incubation at r.t.

A further series concerns MV-4-11 cells. Put plainly: Inhibitory effect on MV-4-11 cells (CellTiter-Glo). The conditions noted are these: Homo sapiens, MV4-11; 72 hours, CellTiter-Glo; read-out: MV-4-11. Type of series: cell-based. For orientation: ATP-based viability assays read luminescence as a measure of living cells.
A further series has as its system SU-DHL-6 cells. Put plainly: Inhibitory effect on SU-DHL-6 cells (CellTiter-Glo). Type of series: cell-based. As to conditions: Homo sapiens; 72 hours, CellTiter-Glo; read-out: SU-DHL-6. The procedure: Determinations of the inhibition of the compounds from the above embodiments against SU-DHL-6 cells, the detailed operation steps are as followed:
The 1st Day: Seed the Cells on the Plate
1. The cells were verified that they were in good conditions by observation under microscope;
2. The cells were transferred to a centrifuge tubes, after centrifuged at 1000 rpm for 5 min, the supernatant was discarded;
3. The complete substrate (1640+10% FBS) was added, then blown and patted into single cell suspension, counted by Vi-cell cytometer, the cell suspension was adjusted to desired cell density by the complete medium.
4. The cells were inoculated into a 96 well plate, the cell number was 12000/well at 100 μL per well, 100 μL complete medium was added into the black control;
5. 37° C., 5% CO2 culture overnight.
The 2nd Day: Addition of the Drugs
1. 1000× Compound Plate Preparation
1.1. The test compound was prepared into 10 mM working solution by using DMSO. Then the STS was prepared into 2 mM working solution by using DMSO.
1.2. In the round bottom 96 wells plate, the column 2 of row A to H was added into 60 μL 10 mM test compound (or STS) working solution, columns 3-11 were added into 40 μL DMSO, 20 μL drug solution was pipetted from the column 2 to the column 3, blown and patted for a homogeneous mixture; then 20 μL solution was pipetted from the column 3 to the column 4, blown and patted for a homogeneous mixture, sequently, the drug was diluted by 3 times, 10 concentrations in total. The columns 1 and 12 were supplemented with 40 μL of DMSO.
2. Intermediate plate preparation
A sterile V-bottom 96 deep well plate was used and in each well, 495 μL FBS-free PRMI 1640 medium was added, then 5 μL of the diluted compound (or DMSO) in the 1000× compound plate was pipetted into corresponding position of the V-bottom 96 well plate, blown and patted evenly.
3.1. The cell plate was taken out from the incubator and was observed under microscope. The diluted compound or DMSO in the intermediate plate was added into the cell plate, 11 μL each well.
3.2. The cell was continued to be cultured at 37° C., 5% CO2 for 72 hours.
The 5th Day: CellTiter-Glo Detection of the Cell Activity
1. The CellTiter-Glo buffer and the reaction substrate were taken out from the refrigerator, after balanced to r.t., the buffer was poured into a brown bottle containing the substrate, the bottle was upside down to have the substrate powder sufficientaly dissolved.
2. The cell was observed under microscope; the cell plate was balanced to r.t.
3. The prepared CellTiter-Glo was added into the 96 well plate, at 100 μL/well.
4. The cell plate was placed on a shaker for 10 min, followed by standing at r.t. for 10 min.
5. A white seal film was attached to the bottom of the well plate, and the chemiluminescence signal of each well was detected by the Enspire microplate detector.
6. XLfit was used for data processing. Inhibition rate %=(d-c)/(d-b)×100, while d is the signal value of the DMSO treated group, c is the signal value of the compound treated group, b is signal value of the blank control that only containing medium and DMSO without cells. The data was fitted using the f (x)205[fit=(A+((B−A)/(1+((C/x)^∧D))))] equation in the XLfit software.

Series [1] is described as follows: Metabolic stability in human liver microsomes. The format is in vitro ADME. As to conditions: human liver microsomes 0.5 mg/mL, NADPH, 37° C.; for CLint scaled at 1 µM: pH 7.4, read-out: HLM_CLint. As for the experimental part:
(§1) Determinations of the metabolic stability of the compound from the above embodiments, the detailed operation steps are as followed:
(§2) 1. Preparation of buffer C:
(§3) Buffer A: 1.0 L of 0.1 M potassium dihydrogen phosphate buffer (containing 1.0 mM EDTA);
(§4) Buffer B: 1.0 L of 0.1 M dipotassium hydrogen phosphate buffer (containing 1.0 mM EDTA);
(§5) Buffer C: 500 mL Buffer B was titrated with Buffer A to pH 7.4.
(§6) 2. 10 mM stock solution preparation:
(§7) 10 mM test compound: A certain amount of the test compound was weighed and dissolved in DMSO.
(§8) 10 mM control: 5.455 mg of ketanserin dissolved in 1 mL DMSO.
(§9) 3. Preparation of the drug solution:
(§10) 500 μM solution: 5 μL of 10 mM stock solution (see step 2) was added into 95 μL ACN;
(§11) 1.5 μM dosing solution (dissolved in liver microsome solution):
(§12) 18.75 μL of 20 mg/mL liver microsomes was added into 479.75 μL of Buffer C, then 1.5 μL of 500 μM solution was added and mixed gently by shaking.
(§13) 4. Preparation of 6 mM NADPH solution:
(§14) 15 mg NADPH was weighted, then added into 3 mL of buffer C to prepare a 6 mM NADPH solution.
(§15) 5. 30 µL of 1.5 μM dosing solution (see step 3) was added into the wells of the 96-well plate set at different time points (0 minutes, 5 minutes, 15 minutes, 30 minutes, 45 minutes), number of dulplicate sample is 2.
(§16) 6. Preparation of a 0 minutes sample: 135 μL ACN (with internal standard) was added to the 0 minutes well, followed by 15 µL of 6 mM NADPH solution.
(§17) 7. The 96-well plate containing 1.5 μM dosing solution and NADPH solution were preheated in a 37° C. water bath for 5 minutes.
(§18) 8. The 15 µL of 6 mM NADPH solution preheated was added into the wells set to 5 minutes, 15 minutes, 30 minutes, 45 minutes, then the reaction was initiated and started counting the time.
(§19) 10. The sample was vortexed for 10 min, and then centrifuged for 15 minutes on a centrifuge (Thermo Multifuge×3R) using 5594×g.
(§20) 11. 50 μL of the supernatant was taken from the centrifuged sample, transferred to a 96-well sample plate to which 100 μL of ultrapure water had already been added, mixed, and finally sent to LC-MS/MS for analysis.
(§21) Half time (T1/2)=0.693/K (K is the rate constant obtained by linear regression of the logarithm of the concentration as vertical coordinates and the culturing time as the abscissa)
(§22) 2. According to the equation formula bellow, Excel was used to plot the compound content versus reaction time, as well as half life calculation (min)
(§23) Y=(Y0−Plateau)×e^(−K*X)+Plateau
(§24) Y0 represents the compound content at 0 minutes; Y represents the compound content; X represents the time point; K represents degration rate constant of the compound; Plateau represents the lowest possible content of the compound (defined herein as 0).
Background: Microsomes from liver hold many membrane-bound enzymes, among them those of drug oxidation.

Series [2] can be described thus: Metabolic stability in mouse liver microsomes. Type of series: in vitro ADME. The conditions noted are these: mouse liver microsomes 0.5 mg/mL, NADPH, 37° C.; for CLint scaled at 1 µM: pH 7.4, read-out: MLM_CLint. The procedure: as §1, §2, §3, §4, §5, §6, §7, §8, §9, §10, §11, §12, §13, §14, §15, §16, §17, §18, §19, §20, §21, §22, §23, §24

On to `Cn1cc2c(c1C(N)=O)CC(=O)N(c1ccc(F)cc1)c1ccc(CS(C)(=O)=O)cc1-2` [Compound 4001, 6-(4-fluorophenyl)-2-methyl-9-(methylsulfonemethyl)-5-oxo-2,4,5,6-tetrahydrobenzo[b]pyrrolo[3,4-d]azepin-3-carboxamide], for which the IC50 was found to be 124 nM at BRD4 (BD1), 25 nM at BRD4 (BD2), 1440 nM in the series with MV-4-11 cells and 2000 nM in the series on SU-DHL-6 cells.
For the compound `Cn1cc2c(c1C(N)=O)CCN(c1ccc(F)cc1)c1ccc(CS(C)(=O)=O)cc1-2` [Compound 4002, 6-(4-fluorophenyl)-2-methyl-9-(methylsulfonylmethyl)-2,4,5,6-tetrahydrobenzo[b]pyrrolo[3,4-d]azepin-3-carboxamide], the IC50 on BRD4 (BD1) came out at 26 nM; at BRD4 (BD2) it was 47 nM; in the series with MV-4-11 cells it was 1120 nM; in the series on SU-DHL-6 cells it was 1930 nM. Besides, in series [1], the HLM_T1/2 stood at 38.19 min. Moreover, the CLint scaled at 1 µM in series [1] amounted to 45.5 mL/min/kg; in series [2] it was 233 mL/min/kg. The compound further showed an MLM_T1/2 in series [2] of 23.42 min.
With `Cn1cc2c(c1C#N)CC(=O)N(c1ccc(F)cc1)c1ccc(CS(C)(=O)=O)cc1-2` [Compound 4003, 6-(4-Fluorophenyl)-2-methyl-9-(methylsulfonemethyl)-5-oxo-2,4,5,6-tetrahydrobenzo[b]pyrrolo[3,4-d]azepin-3-nitrile], the IC50 on BRD4 (BD1) is 148 nM; at BRD4 (BD2), 16 nM; in the series on MV-4-11 cells, 1550 nM; in the series on SU-DHL-6 cells it was 2040 nM.
Taken in the same sequence, the figures for `Cn1cc2c(c1C(N)=O)CCN(c1ccc(F)cc1)c1ncc(F)cc1-2` [Compound 4005, 9-fluoro-6-(4-fluorophenyl)-2-methyl-2,4,5,6-tetrahydropyrido[2,3-b]pyrrolo[3,4-d]azepin-3-carboxamide] were 163 nM, 550 nM, > 10000 nM and > 10000 nM.
For the compound `Cn1cc2c(cc1=O)CN=C(c1ccc(F)cc1)c1ccc(CS(C)(=O)=O)cc1-2` [Compound 4007, 7-(4-Fluorophenyl)-2-methyl-10-(methylsulfonemethyl)-2H-benzo[c]pyrido[3,4-e]azepin-3(5H)-ketone], the IC50 on BRD4 (BD1) came to 6 nM; at BRD4 (BD2) it was 7 nM; in the series on MV-4-11 cells, 118 nM; in the series with SU-DHL-6 cells, 253 nM. The HLM_T1/2 result in series [1] was “∞”. This compound also had an MLM_T1/2 in series [2] of 815.54 min. The CLint scaled at 1 µM in series [2] was 6.69 mL/min/kg.
For the compound `CCS(=O)(=O)Cc1ccc2c(c1)-c1cn(C)c(=O)cc1CN=C2c1ccc(Cl)cc1` [Compound 4011, 7-(4-chlorophenyl)-10-((ethylsulfone)methyl)-2-methyl-2,5-dihydro-3H-benzo[c]pyrido[3,4-e]Azazale-3-ketone], the IC50 at BRD4 (BD1) came out at 4 nM; at BRD4 (BD2), 4 nM; in the series on MV-4-11 cells, 65 nM; in the series with SU-DHL-6 cells, 59 nM. Moreover, the HLM_T1/2 in series [1] is 1127.52 min. Also, the CLint scaled at 1 µM was found to be 1.54 mL/min/kg in series [1] and 5.16 mL/min/kg in series [2]. Also, in series [2], the MLM_T1/2 came out at 1056.88 min.
